The subject of assay [1] is mouse contact sensitisation model. The experiment in a line: Contact sensitisation (oxazalone, ear swelling) in mice. It is filed as in vivo. As to conditions: for ear swelling response (steroid alone) / normal ear swelling (steroid alone): 5 mg/kg s.c. days 0 and 4; for increase in ear thickness (steroid alone): 100 μg/mouse s.c. days 0, 4 and 5; for normal ear swelling (steroid alone): Experiment 4, FIG. 7. As for the experimental part: 1. Contact Sensitisation (CS)
On day 0, mice were painted on their shaved right flank with 50 μl 2.5% oxazalone or vehicle (acetone 4:1 olive oil). On day 5 animals were challenged on their dorsal right ear surface with 25 μl of either 0.75% or 0.25% oxazalone. Prior to ear challenge, and 24, 48 and 72 hour post challenge ear thickness was measured using an engineer's micrometers. Ear swelling is determined as the difference in thickness prior and post challenge. The data are expressed as percentage change from the vehicle treated groups given sensitisation and challenge.
DHEA, DHEAS were administered at various times, generally at time of sensitisation (day 0) and time of challenge (day 3 or 4-DTH model, day 4 or 5-(CS-model) in order to obtain an augmentation of the immune response above non-steroid treated animals.
Different doses of the inhibitors have been used, and compared to the effect of dexamethasone as potential immunosuppressive/anti-inflammatory agents.

Assay [2] relates to mouse delayed type hypersensitivity model. As to the kind of experiment: Delayed type hypersensitivity (SRBC, footpad swelling) in the mouse. Type of assay: in vivo. As to conditions: FIG. 11; 5 mg/kg s.c.; 24 h post challenge. Here is the method: 2. Delayed Type Hypersensitivity (DTH)
On day 0, animals were injected intravenously with 10^6 washed SRBC in 0.1 ml saline. Four days later animals were challenged in the right hind footpad with 10^6 washed SRBC in 50 μl saline. Footpad thickness is measured prior to challenge, 24, 48 and 72 hours post challenge using calipers. Footpad swelling is determined as the difference in thickness prior and post challenge. The data are expressed as percentage change from the vehicle treated groups given sensitisation and challenge.
Animals were randomised into 10 groups (n=7-8) and steroids given on day 0 and 4.
Steroids were given on day 0 and 3 subcutaneously. Response at 24 h post challenge. Results given as mean±sem. $, *p<0.05 ANOVA.

Assay [3] deals with mouse contact sensitisation model. As to the kind of experiment: Cellular infiltrate (anti-CD3 / anti-Mac-1 positive cells) in challenged ears, contact sensitisation. As to conditions: Experiment 7, FIG. 10; DHEAS 5 mg/kg days 0 and 5; 24 h following challenge. It is filed as in vivo, mice. As for the experimental part:
Animals were randomised into 7 groups (n=7-10) and steroids given on days 0 and 5. At 24 h following challenge, ears were removed, fixed and stained with either an anti-CD3 (T-cells) or anti-Mac-1 (monocytes/macrophages) antibody and the number of positive cells counted in 10 random fields.

The test system of the next assay is carrageenan pleurisy. As to the kind of experiment: Carrageenan pleurisy. It is filed as in vivo, Wistar Rats. As to conditions: FIG. 14; DEX 1 mg/kg p.o. at T=-1 h; six hours. As for the experimental part:
Wistar Rats were anaesthetised and given intra-pleural injections of 0.5% carrageenan in saline at time 0. Six hours later the animals were killed and pleural cavity lavaged with 1 ml. citrated saline. Volume of fluid exudate and exudate cell concentration were measured. Animals were randomised to 5 treatment groups (n=6).

Where [4] appears, read: Metabolites Experiment 3, FIG. 17.
Where [5] appears, read: Experiment 1, FIG. 4, 48 post challenge.
[6] abbreviates: Experiment 2, FIG. 5, 100 μg/mouse s.c. days 0 and 5, 24 h post-challenge.

As for `CC12CCC(OS(=O)(=O)O)CC1=CCC1C2CCC2(C)C(O)CCC12` (stereo not drawn) [AEDS], in assay [1] (Metabolites Experiment 2, FIG. 16, AEDS 0.0005-5 mg/kg s.c. days 0 and 4), the ear swelling response result is given as “can augment the ear swelling response”. Also, the “dose for augmentation of ear swelling, less than seen with DHEAS” value in assay [1] (Metabolites Experiment 2, FIG. 16, relative to DHEAS) is reported as “at least 1000 fold”. Further, in assay [1] (setting [4]), the “substrate for the sulphatase enzyme in vivo” value is listed as “can serve as a physiological substrate for the sulphatase enzyme in vivo” and the “ear swelling response (steroid alone)” value is recorded as “stimulatory response”.
As for `C[C@]12CC[C@H](OS(=O)(=O)O)CC1=CC[C@@H]1[C@@H]2CC[C@]2(C)C(=O)CC[C@@H]12` [DHEAS, DHEA sulphate], the “foot swelling response (steroid alone)” value in assay [2] is “clearly pro-immune (or pro-inflammatory)”. The “immune and inflammatory cell infiltrate into challenged ears” value in assay [3] is “can augment both immune and inflammatory cell infiltrate into challenged ears”. Besides, the “increase in ear thickness (steroid alone)” value (“increase in ear thickness” for short) in assay [1] (setting [5]) is reported as “augmented the normal increase in ear thickness”. In addition, the ear swelling response result in assay [1] (setting [6]) is recorded as “significantly augmented the response”. The “anti-glucocorticoid effect on ear swelling” value in assay [1] (Experiment 3, FIG. 6, DHEAS 0.0005-50 mg/kg with corticosterone 5 mg/kg s.c. days 0 and 4) is “functional anti-glucocorticoid effect”. The “normal ear swelling (steroid alone)” value in assay [1] is listed as “augmented the normal ear swelling”. Further, in assay [1] (setting [4]), the “ear swelling response (steroid alone)” value was “stimulatory response”.
Take `CN(C)S(=O)(=O)Oc1ccc2c(c1)CC[C@@H]1[C@@H]2CC[C@]2(C)C(=O)CC[C@@H]12` [CT 2210, Estrone-3-0-(N,N-dimethyl)sulphamate]: in assay [1] (Experiment 1, FIG. 4, 2 mg/mouse s.c. days 0, 4 and 5, 48 post challenge), the “ear swelling, inhibitor alone” value is “able to attenuate the ear swelling seen in the absence of DHEA and DHEAS”. Also, in assay [1] (Experiment 1, FIG. 4, inhibitor 2 mg/mouse with DHEA or DHEAS 100 μg/mouse s.c. days 0, 4 and 5, 48 post challenge), the “reversal of stimulatory effects of DHEA and DHEAS on ear swelling” value is “able to reverse the stimulatory effects of either DHEA and DHEAS”.
With `C[C@]12CC[C@H](O)CC1=CC[C@@H]1[C@@H]2CC[C@]2(C)C(=O)CC[C@@H]12` [DHEA, Dehydroepiandrosterone], in assay [2], the “foot swelling response (steroid alone)” value was “clearly pro-immune (or pro-inflammatory)”. Besides, the “increase in ear thickness” value in assay [1] (setting [5]) was “augmented the normal increase in ear thickness”. Besides, the ear swelling response result is listed as “significantly augmented the response” in assay [1] (setting [6]); “can augment the ear swelling response” in assay [1] (Metabolites Experiment 1, FIG. 15, DHEA 0.005-5 mg/kg, AED 0.05-5 mg/kg s.c. days 0 and 4). Besides, the “normal ear swelling (steroid alone)” value in assay [1] is given as “augmented the normal ear swelling”.
Regarding `C[C@@H]1C[C@H]2[C@@H]3CCC4=CC(=O)C=C[C@]4(C)[C@@]3(F)[C@@H](O)C[C@]2(C)[C@@]1(O)C(=O)CO` [Dexamethasone, dexamethasone], in assay [1] (setting [5]), the “increase in ear thickness” value was “reduced the response”. The ear swelling response result in assay [1] (setting [6]) was “inhibited”. In addition, the “normal ear swelling (steroid alone)” value in assay [1] is “inhibited”. Also, the “degree of ear swelling” value in assay [1] (Experiment 5, FIG. 8, DEX 5 mg/kg s.c. days 0 and 4, 24 h) is “inhibited the degree of ear swelling”. Also, in the assay on carrageenan pleurisy, the “fluid leakage (exudate)” value was “can completely inhibit fluid leakage” and the “reduction of cellular influx” value is listed as 68%.
